Experiments:
[1] = target: T1, KIAA0664 Clustered mitochondria protein homolog (Homo sapiens, UniProt O75153); experiment: Cysteine liganding, probe competition; type: binding
T1 construct: Cells were resuspended in cold PBS on ice and sonicated with a probe sonicator to achieve lysis; endogenous in cells
T1 sequence (O75153 1-1309): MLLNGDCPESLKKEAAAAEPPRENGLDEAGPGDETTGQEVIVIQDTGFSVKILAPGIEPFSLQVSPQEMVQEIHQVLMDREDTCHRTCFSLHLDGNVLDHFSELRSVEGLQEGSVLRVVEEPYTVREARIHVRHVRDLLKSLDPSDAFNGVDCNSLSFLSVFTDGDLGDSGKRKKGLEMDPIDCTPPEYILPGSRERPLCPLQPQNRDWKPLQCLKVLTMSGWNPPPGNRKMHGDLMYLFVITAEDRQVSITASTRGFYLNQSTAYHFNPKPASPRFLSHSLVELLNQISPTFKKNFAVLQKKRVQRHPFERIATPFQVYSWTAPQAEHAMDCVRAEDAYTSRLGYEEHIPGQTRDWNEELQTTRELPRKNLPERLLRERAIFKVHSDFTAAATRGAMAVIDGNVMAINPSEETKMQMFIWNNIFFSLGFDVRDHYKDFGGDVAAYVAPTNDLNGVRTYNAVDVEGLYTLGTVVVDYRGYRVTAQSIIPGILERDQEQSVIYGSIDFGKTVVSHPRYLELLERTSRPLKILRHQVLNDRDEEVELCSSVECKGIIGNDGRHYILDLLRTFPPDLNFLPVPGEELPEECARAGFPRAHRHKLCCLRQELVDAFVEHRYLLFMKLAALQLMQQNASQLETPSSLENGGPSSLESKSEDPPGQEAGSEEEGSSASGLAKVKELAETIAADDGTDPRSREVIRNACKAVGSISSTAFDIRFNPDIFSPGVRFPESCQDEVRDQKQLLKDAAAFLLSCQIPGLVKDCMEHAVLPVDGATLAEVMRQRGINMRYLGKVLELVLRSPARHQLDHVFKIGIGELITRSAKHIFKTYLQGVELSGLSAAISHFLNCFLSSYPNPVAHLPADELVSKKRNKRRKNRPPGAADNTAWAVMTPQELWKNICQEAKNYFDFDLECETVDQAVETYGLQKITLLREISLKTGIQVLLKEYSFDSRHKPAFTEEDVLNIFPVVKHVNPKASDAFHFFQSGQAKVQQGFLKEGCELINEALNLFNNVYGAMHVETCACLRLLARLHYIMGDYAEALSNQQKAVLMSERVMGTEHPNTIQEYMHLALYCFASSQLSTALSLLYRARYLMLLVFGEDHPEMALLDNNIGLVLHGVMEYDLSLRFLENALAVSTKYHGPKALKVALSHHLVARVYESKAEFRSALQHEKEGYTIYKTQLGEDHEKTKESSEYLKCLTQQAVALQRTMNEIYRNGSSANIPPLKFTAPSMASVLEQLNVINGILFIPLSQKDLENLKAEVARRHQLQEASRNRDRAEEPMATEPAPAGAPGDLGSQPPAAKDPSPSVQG
In short: (§1)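 Lysates from probe-sonicated cells in PBS (5 mg/ml proteome) were exposed to compound for 1 hr at 25° C, then labelled with desthiobiotin iodoacetamide probe (10 mM stock) for 1 hr at 25° C. Probe-tagged peptides were streptavidin-enriched after trypsin digestion.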

FASN Fatty acid synthase = target: T2, FASN Fatty acid synthase (Homo sapiens, UniProt P49327); experiment: Cysteine liganding, probe competition; type: binding
T2 construct: 200 μL of lysate containing 5 mg/ml proteome was treated with 2 μL of 100× compound stock; endogenous in cells
T2 sequence (P49327 whole entry): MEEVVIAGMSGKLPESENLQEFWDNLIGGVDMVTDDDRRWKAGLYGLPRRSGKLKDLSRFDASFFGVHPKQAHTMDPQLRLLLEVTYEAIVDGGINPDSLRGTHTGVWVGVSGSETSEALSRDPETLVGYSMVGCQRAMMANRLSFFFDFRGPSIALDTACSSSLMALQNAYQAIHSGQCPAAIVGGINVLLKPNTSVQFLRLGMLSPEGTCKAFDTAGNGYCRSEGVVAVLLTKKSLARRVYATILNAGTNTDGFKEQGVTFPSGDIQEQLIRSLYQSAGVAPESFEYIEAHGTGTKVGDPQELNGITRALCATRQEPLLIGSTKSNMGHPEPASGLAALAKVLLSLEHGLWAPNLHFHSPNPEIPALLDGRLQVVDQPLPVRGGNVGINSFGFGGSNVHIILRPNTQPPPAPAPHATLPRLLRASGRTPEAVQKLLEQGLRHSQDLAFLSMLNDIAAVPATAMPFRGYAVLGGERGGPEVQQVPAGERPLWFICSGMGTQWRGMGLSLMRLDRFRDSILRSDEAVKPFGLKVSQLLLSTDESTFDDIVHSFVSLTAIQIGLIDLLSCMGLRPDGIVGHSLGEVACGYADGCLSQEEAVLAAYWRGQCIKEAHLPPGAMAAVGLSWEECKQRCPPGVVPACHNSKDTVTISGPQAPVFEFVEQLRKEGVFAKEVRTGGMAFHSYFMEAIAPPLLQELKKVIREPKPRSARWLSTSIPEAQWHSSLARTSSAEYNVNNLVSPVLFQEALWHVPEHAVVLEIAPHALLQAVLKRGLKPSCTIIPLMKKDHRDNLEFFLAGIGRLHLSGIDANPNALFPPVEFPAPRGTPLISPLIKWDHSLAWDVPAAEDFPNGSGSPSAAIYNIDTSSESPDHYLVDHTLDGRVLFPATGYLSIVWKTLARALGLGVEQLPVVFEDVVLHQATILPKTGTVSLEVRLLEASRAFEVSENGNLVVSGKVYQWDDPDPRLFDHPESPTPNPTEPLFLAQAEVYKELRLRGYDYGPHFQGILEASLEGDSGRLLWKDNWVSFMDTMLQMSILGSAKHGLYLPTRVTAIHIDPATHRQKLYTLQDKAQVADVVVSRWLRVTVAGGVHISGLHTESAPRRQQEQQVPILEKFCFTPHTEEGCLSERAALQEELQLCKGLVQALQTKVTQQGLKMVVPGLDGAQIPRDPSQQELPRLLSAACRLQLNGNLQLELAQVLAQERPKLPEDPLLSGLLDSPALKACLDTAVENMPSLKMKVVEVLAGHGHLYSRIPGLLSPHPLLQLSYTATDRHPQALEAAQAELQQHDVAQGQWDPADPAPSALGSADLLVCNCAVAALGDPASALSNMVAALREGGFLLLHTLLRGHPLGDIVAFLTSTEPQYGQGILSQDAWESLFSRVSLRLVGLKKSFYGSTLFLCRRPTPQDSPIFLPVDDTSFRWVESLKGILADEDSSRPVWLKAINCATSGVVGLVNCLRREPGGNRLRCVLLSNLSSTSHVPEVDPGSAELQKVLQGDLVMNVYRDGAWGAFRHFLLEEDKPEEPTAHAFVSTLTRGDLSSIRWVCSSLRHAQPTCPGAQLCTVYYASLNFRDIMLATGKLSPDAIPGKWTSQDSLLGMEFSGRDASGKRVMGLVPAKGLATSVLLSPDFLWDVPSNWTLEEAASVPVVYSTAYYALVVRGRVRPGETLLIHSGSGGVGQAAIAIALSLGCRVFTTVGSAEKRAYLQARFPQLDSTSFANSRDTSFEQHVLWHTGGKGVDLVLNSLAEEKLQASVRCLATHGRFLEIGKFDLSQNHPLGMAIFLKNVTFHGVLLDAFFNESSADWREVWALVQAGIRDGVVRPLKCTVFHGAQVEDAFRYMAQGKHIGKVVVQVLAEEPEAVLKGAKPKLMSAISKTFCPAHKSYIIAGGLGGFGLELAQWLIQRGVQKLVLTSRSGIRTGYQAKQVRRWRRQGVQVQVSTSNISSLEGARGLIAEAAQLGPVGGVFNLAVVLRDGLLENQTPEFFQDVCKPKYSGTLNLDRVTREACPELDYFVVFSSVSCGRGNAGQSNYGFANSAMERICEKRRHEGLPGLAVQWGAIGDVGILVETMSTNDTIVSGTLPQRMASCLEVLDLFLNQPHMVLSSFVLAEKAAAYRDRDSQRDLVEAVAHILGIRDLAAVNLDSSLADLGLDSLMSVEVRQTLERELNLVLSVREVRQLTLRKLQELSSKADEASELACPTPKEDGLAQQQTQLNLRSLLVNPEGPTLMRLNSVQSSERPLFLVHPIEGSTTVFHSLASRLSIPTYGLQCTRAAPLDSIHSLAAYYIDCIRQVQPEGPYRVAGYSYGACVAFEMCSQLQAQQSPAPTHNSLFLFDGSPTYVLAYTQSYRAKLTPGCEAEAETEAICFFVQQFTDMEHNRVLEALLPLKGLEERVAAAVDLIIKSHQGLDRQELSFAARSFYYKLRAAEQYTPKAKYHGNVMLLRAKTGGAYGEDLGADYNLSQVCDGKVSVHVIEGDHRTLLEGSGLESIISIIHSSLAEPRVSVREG
In short: as §1

| SMILES | Liganded ([1]; KIAA0664 Res# 333, uniprot O75153) | Liganded (FASN Fatty acid synthase; FASN Res# 161, uniprot P49327) | 100 Max ([1]; uniprot O75153) | 100 ave ([1]; uniprot O75153) | 500 ave ([1]; uniprot O75153) | 500 Max ([1]; uniprot O75153, in % (unit assumed)) | 100 Max (FASN Fatty acid synthase; uniprot P49327) | 100 ave (FASN Fatty acid synthase; uniprot P49327) |
| --- | --- | --- | --- | --- | --- | --- | --- | --- |
| COc1ccc2c(c1)CCCN2C(=O)CCl [KB02] | YES | YES |  |  |  |  |  |  |
| O=C(CCl)Nc1cc(C(F)(F)F)cc(C(F)(F)F)c1 [KBO3] |  |  | 23.11 | 9.323 | 51.405 | 73.65 | −26.25 | −26.25 |

From patent publication US20200239530A1, “COMPOUNDS AND METHODS OF MODULATING PROTEIN DEGRADATION” (Vividion Therapeutics, Inc., priority 2017, published 2020)
